Like-named read-outs stand apart in the source and are kept apart here.
Experiments:
Format in all cases: biochemical
SHV-5 = target: T1, SHV-5 (Klebsiella pneumoniae, UniProt P0A3M1); test: β-lactamase enzyme inhibition, SHV-5
T1 construct: made in house; host or cells: E. coli BL21(DE3)
Method: (§1) For SHV-5, Kpc-2, p99AmpC and OXA-1 β-lactamases, E. coli BL21(DE3) bacterial cells carrying expression plasmids (expressed as native untagged proteins) for the individual β-lactamases were grown in 1 L of Superbroth (Teknova Inc. Hollister, Calif.) supplemented with 100 μg/mlkanamycin selection and 1×5052 (0.5% glycerol, 0.05% glucose and 0.2% α-lactose) at 35° C. for 18-20 hours. Cells were harvested by centrifugation (4,000×g, 4° C., 20 min), resuspended in 50 ml of 10 mM HEPES pH 7.5 ( 1/20 of the initial volume). The cells were lysed by sonication (5 pulses of 45 seconds) at 45 W on ice. The lysates were clarified by centrifugation at 10,000×g for 40 minutes at 4° C. Samples were diluted 5-fold in 50 mM sodium acetate pH 5.0, stored overnight at 4° C., after which they were centrifuged at 10,000×g for 30 minutes to clarify, and filtered through 0.45 μm filters. The samples were loaded onto a 5 ml Capto S sepharose cation exchange column (GE Healthcare) pre-equilibrated with 50 mM sodium acetate pH 5.0. The column was washed with 5 column volumes of 50 mM sodium acetate pH 5.0 to wash out unbound protein and a linear gradient of NaCl (0 to 500 mM) was used to elute the protein (over 16 CV) from the column. Fractions were assayed for β-lactamase activity using Centa (Calbiochem, Gibbstown, N.J.) or Nitrocefin (EMD Millipore chemicals, Darmstadt, Germany) as a reporter β-lactamase substrate for activity in the isolated fractions. Active fractions were pooled, concentrated and further purified by gel filtration chromatography on a Superdex 75 prep grade gel filtration column (GE Healthcare, Piscataway, N.J.) pre-equilibrated in 50 mM Hepes pH 7.5, 150 mM NaCl. Active fractions were pooled concentrated, quantitated by BCA protein determination (Thermo Scientific, Rockford, Ill.), dialyzed into PBS and frozen at −80° C. in 20% glycerol until use.
(§2) An equal volume of diluted enzyme stock was added, and the plates were incubated at 37° C. for 15 min. Nitrocefin was used as substrate for p99 AmpC, VIM-2 and OXA-1 and dispensed into each well at a final concentration of 100 μM. Absorbance at 486 nm was immediately monitored for 10 min using a Biotek Powerwave XS2 microplate spectrophotometer using the GENS software package (Biotek Instruments, Winooski Vt.). In an analogous fashion, imipenem was used as substrate for Kpc-2 and Cefotaxime was used for SHV-5, while changes in absorbance upon hydrolysis of the β-lactam ring were monitored at 300 nm and 260 nm respectively in UV-transparent 96-well microtiter assay plates. Maximum rates of hydrolysis were compared to those in control wells (without inhibitors), and percentages of enzyme inhibition were calculated for each concentration of inhibitor. The concentration of inhibitor needed to reduce the initial rate of hydrolysis of substrate by 50% (IC50) was calculated as the residual activity of β-lactamase at 486 nm using GraFit version 7 kinetics software package (Erithacus Software, Surrey, UK).
(§3) Using the methodology described above, examples of the current invention were evaluated for their ability to inhibit β-lactamase enzymes from all four Ambler classifications (A through D). […] NT=Not tested.

KPC-2 = target: T2, KPC-2 (Klebsiella pneumoniae, UniProt Q9F663); test: β-lactamase enzyme inhibition, KPC-2; settings: substrate imipenem, 300 nm; read-out: Class A KPC-2 IC50
T2 construct: made in house; host or cells: E. coli BL21(DE3)
Method: as §1, §2, §3

VIM-2 = target: T3, VIM-2 (Escherichia coli, UniProt Q5U7L7); test: β-lactamase enzyme inhibition, VIM-2; settings: substrate Nitrocefin 100 μM, 486 nm; read-out: Class B VIM-2 IC50
T3 construct: made in house; host or cells: E. coli BL21(DE3)
Method: For Vim-2 metallo β-lactamase, the procedure was identical with the following exceptions, first the protein was not pH adjusted to pH 5 with 50 mM sodium acetate, second, the chromatography step was changed to a 5 ml Q sepharose anion exchange column pre-equilibrated with 50 mM Hepes pH 7.5, and elution of the protein was achieved by a linear gradient of NaCl (0-600 mM). Finally, the VIM-2 purification required a second run (3rd step) on the Q sepharose anion exchange column to achieve acceptable purity (>90%).
as §2, §3

p99 AmpC = target: T4, p99 AmpC (Enterobacter cloacae, UniProt P05364); test: β-lactamase enzyme inhibition, p99 AmpC
T4 construct: made in house; host or cells: E. coli BL21(DE3)
Method: as §1, §2, §3

OXA-1 = target: T5, OXA-1 (Escherichia coli, UniProt P13661); test: β-lactamase enzyme inhibition, OXA-1; settings: substrate Nitrocefin 100 μM, 486 nm; read-out: Class D OXA-1 IC50
T5 construct: made in house; host or cells: E. coli BL21(DE3)
Method: as §1, §2, §3

[1] = read-out: Class A SHV-5 IC50, substrate Cefotaxime, 260 nm

Structure (SMILES) | IC50 (SHV-5) [nM] | IC50 (KPC-2) [nM] | IC50 (VIM-2) [nM] | IC50 (p99 AmpC) [nM] | IC50 (OXA-1) [nM] | IC50 (SHV-5; [1]) [nM]
NC[C@H]1CC[C@H](C(=O)N[C@H]2Cc3cccc(C(=O)O)c3OB2O)CC1 [Example 1, (R)-3-(trans-4-(aminomethyl)cyclohexanecarboxamido)-2-hydroxy-3,4-dihydro-2H-benzo[e][1,2]oxaborinine-8-carboxylic acid] | 1000 to 10000 | 100 to 1000 | 100 to 1000 | < 100 | < 100 | 
N[C@H]1CC[C@H](C(=O)N[C@H]2Cc3cccc(C(=O)O)c3OB2O)CC1 [Example 2, (R)-3-(trans-4-aminocyclohexanecarboxamido)-2-hydroxy-3,4-dihydro-2H-benzo[e][1,2]oxaborinine-8-carboxylic acid] | 10000 to 100000 | 100 to 1000 | 100 to 1000 | < 100 | 100 to 1000 | 
NC[C@H]1CC[C@H](CC(=O)N[C@H]2Cc3cccc(C(=O)O)c3OB2O)CC1 [Example 3] | < 100 | 100 to 1000 | 1000 to 10000 | < 100 | < 100 | 
N=C(N)NC[C@H]1CC[C@H](CC(=O)N[C@H]2Cc3cccc(C(=O)O)c3OB2O)CC1 [Example 4, (R)-3-(2-(trans-4-(guanidinomethyl)cyclohexyl)acetamido)-2-hydroxy-3,4-dihydro-2H-benzo[e][1,2]oxaborinine-8-carboxylic acid] | < 100 | < 100 | 100 to 1000 | < 100 | < 100 | 
CN(C)CC(=O)NC[C@H]1CC[C@H](CC(=O)N[C@H]2Cc3cccc(C(=O)O)c3OB2O)CC1 [Example 5, (R)-3-(2-(trans-4-((2-(dimethylamino)acetamido)methyl)cyclohexyl)acetamido)-2-hydroxy-3,4-dihydro-2H-benzo[e][1,2]oxaborinine-8-carboxylic acid] | < 100 | < 100 | 1000 to 10000 | < 100 | < 100 | 
N[C@H]1CC[C@H](CC(=O)N[C@H]2Cc3cccc(C(=O)O)c3OB2O)CC1 [Example 6, (R)-3-(2-(trans-4-aminocyclohexyl)acetamido)-2-hydroxy-3,4-dihydro-2H-benzo[e][1,2]oxaborinine-8-carboxylic acid] | < 100 | < 100 | 100 to 1000 | < 100 | < 100 | 
N[C@H]1CC[C@@H](CC(=O)N[C@H]2Cc3cccc(C(=O)O)c3OB2O)CC1 [Example 7, (R)-3-(2-(cis-4-aminocyclohexyl)acetamido)-2-hydroxy-3,4-dihydro-2H-benzo[e][1,2]oxaborinine-8-carboxylic acid] | < 100 | < 100 | 1000 to 10000 | < 100 | 100 to 1000 | 
CN(C)C[C@H]1CC[C@H](CC(=O)N(C)[C@H]2Cc3cccc(C(=O)O)c3OB2O)CC1 [Example 8, (R)-3-(2-(trans-4-((dimethylamino)methyl)cyclohexyl)-N-methylacetamido)-2-hydroxy-3,4-dihydro-2H-benzo[e][1,2]oxaborinine-8-carboxylic acid] | < 100 | < 100 | 1000 to 10000 | < 100 | 100 to 1000 | 
N=C(N)N[C@H]1CC[C@H](CC(=O)N[C@H]2Cc3cccc(C(=O)O)c3OB2O)CC1 [Example 9, (R)-3-(2-(trans-4-guanidinocyclohexyl)acetamido)-2-hydroxy-3,4-dihydro-2H-benzo[e][1,2]oxaborinine-8-carboxylic acid] | < 100 | < 100 | 100 to 1000 | < 100 | < 100 | 
NCCNC[C@H]1CC[C@H](CC(=O)N[C@H]2Cc3cccc(C(=O)O)c3OB2O)CC1 [Example 10, (R)-3-(2-(trans-4-((2-aminoethylamino)methyl)cyclohexyl)acetamido)-2-hydroxy-3,4-dihydro-2H-benzo[e][1,2]oxaborinine-8-carboxylic acid] | < 100 | < 100 | 100 to 1000 | < 100 | 100 to 1000 | 
NCC1CCC(=CC(=O)N[C@H]2Cc3cccc(C(=O)O)c3OB2O)CC1 (stereo partly drawn) [Example 11, (3R)-3-(2-(4-(aminomethyl)cyclohexylidene)acetamido)-2-hydroxy-3,4-dihydro-2H-benzo[e][1,2]oxaborinine-8-carboxylic acid] | 100 to 1000 | 1000 to 10000 | 1000 to 10000 | < 100 | 100 to 1000 | 
NCC1CCC(CC(=O)N[C@H]2Cc3cccc(C(=O)O)c3OB2O)(C[N+](=O)[O-])CC1 (stereo partly drawn) [Example 12, (R)-3-(2-(4-(aminomethyl)-1-(nitromethyl)cyclohexyl)acetamido)-2-hydroxy-3,4-dihydro-2H-benzo[e][1,2]oxaborinine-8-carboxylic acid] | 100 to 1000 | 100 to 1000 | 1000 to 10000 | < 100 | 100 to 1000 | 
NC[C@H](N)C(=O)N[C@H]1CC[C@H](CC(=O)N[C@H]2Cc3cccc(C(=O)O)c3OB2O)CC1 [Example 13, (R)-3-(2-(trans-4-((S)-2,3-diaminopropanamido)cyclohexyl)acetamido)-2-hydroxy-3,4-dihydro-2H-benzo[e][1,2]oxaborinine-8-carboxylic acid] | < 100 | < 100 | 100 to 1000 | < 100 | < 100 | 
N=C(N)N1CCN([C@H]2CC[C@H](CC(=O)N[C@H]3Cc4cccc(C(=O)O)c4OB3O)CC2)CC1 [Example 24, (R)-3-(2-(trans-4-(4-carbamimidoylpiperazin-1-yl)cyclohexyl)acetamido)-2-hydroxy-3,4-dihydro-2H-benzo[e][1,2]oxaborinine-8-carboxylic acid] |  | < 100 | 1000 to 10000 |  | < 100 | < 100
NC1CN(C2CCC(CC(=O)N[C@H]3Cc4cccc(C(=O)O)c4OB3O)CC2)C1 (stereo partly drawn) [Example 35, (3R)-3-(2-(4-(3-aminoazetidin-1-yl)cyclohexyl)acetamido)-2-hydroxy-3,4-dihydro-2H-benzo[e][1,2]oxaborinine-8-carboxylic acid] |  | < 100 | 100 to 1000 |  | < 100 | < 100
O=C(CC1CCC(NC2CNC2)CC1)N[C@H]1Cc2cccc(C(=O)O)c2OB1O (stereo partly drawn) [Example 36, (3R)-3-(2-(4-(azetidin-3-ylamino)cyclohexyl)acetamido)-2-hydroxy-3,4-dihydro-2H-benzo[e][1,2]oxaborinine-8-carboxylic acid] |  | < 100 | 1000 to 10000 |  | < 100 | < 100
N=C(N)NC1CN(C2CCC(CC(=O)N[C@H]3Cc4cccc(C(=O)O)c4OB3O)CC2)C1 (stereo partly drawn) [Example 41, (3R)-3-(2-(4-(3-guanidinoazetidin-1-yl)cyclohexyl)acetamido)-2-hydroxy-3,4-dihydro-2H-benzo[e][1,2]oxaborinine-8-carboxylic acid] |  | < 100 | 100 to 1000 |  | < 100 | < 100
O=C(CC1CCC(O)CC1)N[C@H]1Cc2cccc(C(=O)O)c2OB1O (stereo partly drawn) [Example 47, (3R)-2-hydroxy-3-(2-(4-hydroxycyclohexyl)acetamido)-3,4-dihydro-2H-benzo[e][1,2]oxaborinine-8-carboxylic acid] |  | < 100 | 1000 to 10000 |  | < 100 | < 100

Reference: patent publication US8912169B2, “Beta-lactamase inhibitors” (VenatoRx Pharmaceuticals, Inc., priority 2012, dated 2014)
